Earlier results, collected in patent publication US20030109512A1, “Use of 4-androstenediol and 4-androstenediol in a transdermal formulation to increase testosterone levels in humans” (priority 2001, published 2003).

Test system: estrogen levels
Details: some studies indicate

## C[C@]12CCC(=O)C=C1CC[C@@H]1[C@@H]2CC[C@]2(C)C(=O)CC[C@@H]12 [androstenedione]
  effect on estrogen levels: causes elevation of estrogen levels
